From US20070142317A1, “Topical composition for treatment of skin disorders” (QLT USA, Inc., priority 2003, published 2007)
Values joined by “and” are separate entries in the source; they are usually repeats but may differ in a detail not shown here. Equal values may be shown once. Read-outs that look alike come from different tables or passages of the source.

Assays:
ADA = ADA (Homo sapiens, UniProt P00813); conditions: cited from earlier work
U937 monocytoid cells [1] = experiment: TUNEL assay, dAd, adenosine and adenine dose ranging (Example 24); type: cell-based; conditions: for % FITC Shift / % PI Shift: 2 days
Experimental: U937 monocytoid cells were cultured in the presence of dAd at various concentrations of dAd (0, 50, 75, 100, 250 and 1000 micromoles/liter). The cells were incubated in dAd for 2 days. At the end of the treatment period, the cells were harvested for analysis by a TUNEL assay, a flow-cytometry-based method to quantify the percentage of cells that have undergone apoptosis. The level of apoptosis expressed as “% FITC shift”. The level of cell cycle arrest is expressed as “% PI shift”. As a positive control, the cells were exposed to 5 mM camptothecin for 2 days.

U-937 cells [2] = experiment: Cytokine secretion by ELISA (Example 31); type: cell-based; conditions: for effect on suppressing the production of IL-6: 46 hours
Experimental: (§1) In a search for a topical agent that can locally deplete levels of T-cells in the skin, apoptotic compounds were evaluated for their mechanisms of action. The ability that […] induce apoptosis by the same mechanisms was examined by cytokine secretion. […] Caspase-3 and cytokine (IL-2, IL-6, TNF, and IFN-γ) levels were determined and compared to controls at 23 and 46 hours. FdA was incorporated to evaluate the effect of the halogen group and Ara-C for its overlapping mechanisms of action. […] At the end of the treatment period, the cells were harvested and Caspase-3 induction was determined using a flow-cytometry-based method to quantify the percentage of cells that induced Caspase-3. The level of apoptosis is expressed as “% FITC shift”. Cytokine secretion (IL-2, IL-6, TNF, and IFN-γ) was measured at the same time by ELISA and is expressed in pg/mL. […]

[3] = for systemic exposure per day: topical 1.0% (10 mg/g), 7% systemic absorption
From the text: (§2) Systemic absorption is a concern, because of the potential for serious adverse events, such as lymphopenia and renal toxicity. At oncology doses, these adverse reactions are usually minimized, but the therapeutic index is narrow. Another factor that plays a role in the safety of the formulation is the amount of product administered each day. Approximately 4 grams, 12 grams, and 40 grams of a topical formulation are estimated to cover 10%, 30%, and 100% of the body surface area.
as §2
as §2, with “Calculations of safety margins have been performed, based upon this assumption and the known toxicity profile of F-Ara-A when administered IV for oncology indications. Systemic” for “Systemic”
as §2

dCK = dCK (Homo sapiens, UniProt P27707); conditions: read-out: Km for dCK; cited from earlier work
Jurkat cells [4] = experiment: Caspase-3 induction by flow cytometry (Example 31); type: cell-based; conditions: drug 1 μM, PHA-activated cells
Experimental: as §1

U-937 cells [5] = experiment: Caspase-3 induction by flow cytometry (Example 31); type: cell-based; conditions: drug 1 μM, LPS-activated cells
Experimental: as §1

Jurkat cells [6] = experiment: Cytokine secretion by ELISA (Example 31); type: cell-based
Experimental: In a search for a topical agent that can locally deplete levels of T-cells in the skin, apoptotic compounds were evaluated for their mechanisms of action. The ability that […] induce apoptosis by the same mechanisms was examined by cytokine secretion. […] At the end of the treatment period, the cells were harvested and Caspase-3 induction was determined using a flow-cytometry-based method to quantify the percentage of cells that induced Caspase-3. The level of apoptosis is expressed as “% FITC shift”. Cytokine secretion (IL-2, IL-6, TNF, and IFN-γ) was measured at the same time by ELISA and is expressed in pg/mL.

U937 monocytoid cells [7] = experiment: TUNEL assay, dAd added at different times after dCF wash-out (Example 22); type: cell-based; conditions: 0 μM dCF + camptothecin positive control, time after wash-out 0 hr (5 mM printed elsewhere in the source)
U937 monocytoid cells [8] = experiment: TUNEL assay, simultaneous exposure to dCF and dAd (Example 22); type: cell-based; conditions: camptothecin positive control, 2 days (5 mM printed elsewhere in the source)
Experimental: Methods Simultaneous Exposure—U937 monocytoid cells were cultured in the presence of 0, 1, 2.5, 10, 20, 50, 100, 150, 200, and 250 μM dAdo for 2 days. […] At the end of the treatment period, the cells were harvested for analysis by a TUNEL assay, a flow-cytometry-based method to quantify the percentage of cells that have undergone apoptosis. The level of apoptosis is expressed as “% FITC shift”. As a positive control, the cells were exposed to 5 mM camptothecin for 2 days.

U937 monocytoid cells [9] = experiment: TUNEL apoptosis assay, sequential exposure to dCF then dAd (Example 21); type: cell-based; conditions: Camptothecin 5 uM, positive control
Experimental: (§3) Thus, it is hypothesized that the sequential exposure of the cells to dCF, followed by deoxyadenosine (dAd) will lead to greater levels of apoptosis than dCF alone. […] The cells were then incubated in dAd for 2 more days. At the end of the treatment period, the cells were harvested for analysis by a TUNEL assay, a flow-cytometry-based method to quantify the percentage of cells that have undergone apoptosis. The level of apoptosis is expressed as “% FITC shift”. As a positive control, the cells were exposed to 5 mM camptothecin for 2 days.

Jurkat T cells = experiment: as above; type: cell-based; conditions: Camptothecin 5 uM, positive control
Experimental: as §3

U937 monocytoid cells [10] = experiment: TUNEL assay, dAd added at different times after dCF wash-out (Example 22); type: cell-based; conditions: 0 μM dCF + camptothecin positive control, time after wash-out 0 hr (5 mM printed elsewhere in the source); remark: listed apart in the source
Experimental: At 0, 6, 24, and 48 hours, 50 μM dAd was added and the cells were incubated for an additional 2 days. At the end of the treatment period, the cells were harvested for analysis by a TUNEL assay, a flow-cytometry-based method to quantify the percentage of cells that have undergone apoptosis. The level of apoptosis is expressed as “% FITC shift”. As a positive control, the cells were exposed to 5 mM camptothecin for 2 days.

[11] = target: T1, ribonucleotide reductase (RNR) (Homo sapiens, UniProt P23921); conditions: cited from earlier work
T1 sequence (P23921 1-792): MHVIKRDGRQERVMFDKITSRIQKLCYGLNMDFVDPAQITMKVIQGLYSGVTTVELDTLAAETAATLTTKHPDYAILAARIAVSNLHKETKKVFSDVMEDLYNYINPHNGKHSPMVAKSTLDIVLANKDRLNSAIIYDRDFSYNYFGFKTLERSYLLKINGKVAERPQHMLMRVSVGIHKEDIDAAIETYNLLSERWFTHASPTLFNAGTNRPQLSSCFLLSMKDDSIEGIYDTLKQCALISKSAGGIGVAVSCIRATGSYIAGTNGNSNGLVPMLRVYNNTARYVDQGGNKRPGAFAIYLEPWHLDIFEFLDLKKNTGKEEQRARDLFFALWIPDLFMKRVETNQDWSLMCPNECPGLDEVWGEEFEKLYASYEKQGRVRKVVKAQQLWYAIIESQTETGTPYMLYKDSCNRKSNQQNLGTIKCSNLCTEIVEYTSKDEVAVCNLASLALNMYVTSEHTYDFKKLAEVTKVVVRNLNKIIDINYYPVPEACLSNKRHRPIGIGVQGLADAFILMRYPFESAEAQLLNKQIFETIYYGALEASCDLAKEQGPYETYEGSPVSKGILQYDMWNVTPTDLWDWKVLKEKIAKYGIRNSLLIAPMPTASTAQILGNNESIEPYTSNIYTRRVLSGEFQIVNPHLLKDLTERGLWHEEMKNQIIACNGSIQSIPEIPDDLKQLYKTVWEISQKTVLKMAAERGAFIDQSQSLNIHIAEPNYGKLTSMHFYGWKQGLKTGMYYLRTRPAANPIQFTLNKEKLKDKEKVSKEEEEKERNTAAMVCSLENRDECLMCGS

[12] = systemic, deamination by CDA; cited from earlier work
[13] = 23 hr, drug 1 μM, LPS-activated cells
[14] = 46 hr, drug 1 μM, LPS-activated cells
[15] = 23 hr, drug 5 μM, positive control
[16] = 46 hr, drug 5 μM, positive control
[17] = Camptothecin 5 uM, positive control

Chain of ADA (P00813 whole entry, species assumed): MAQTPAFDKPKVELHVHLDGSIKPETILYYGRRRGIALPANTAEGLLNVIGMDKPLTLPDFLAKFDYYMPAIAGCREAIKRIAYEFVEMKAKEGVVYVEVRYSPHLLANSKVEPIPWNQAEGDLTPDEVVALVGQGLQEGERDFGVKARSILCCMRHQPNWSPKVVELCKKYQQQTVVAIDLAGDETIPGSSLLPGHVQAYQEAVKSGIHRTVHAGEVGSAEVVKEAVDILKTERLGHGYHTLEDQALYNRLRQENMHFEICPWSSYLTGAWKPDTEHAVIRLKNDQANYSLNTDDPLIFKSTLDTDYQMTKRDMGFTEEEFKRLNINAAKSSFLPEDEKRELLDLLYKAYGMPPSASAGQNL
Chain of dCK (P27707 whole entry, species assumed): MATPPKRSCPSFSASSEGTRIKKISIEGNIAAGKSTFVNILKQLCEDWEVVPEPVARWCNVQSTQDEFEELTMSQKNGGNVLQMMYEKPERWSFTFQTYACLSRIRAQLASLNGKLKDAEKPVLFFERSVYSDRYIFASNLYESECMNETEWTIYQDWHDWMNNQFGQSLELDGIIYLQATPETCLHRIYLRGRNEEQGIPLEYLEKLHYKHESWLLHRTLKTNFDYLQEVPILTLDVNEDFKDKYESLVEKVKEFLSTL

COc1nc(N)nc2c1ncn2[C@@H]1O[C@H](CO)[C@@H](O)[C@@H]1O [Nelarabine]
Km to ADA relative to that of adenosine (ADA): less than 1%

Nc1ncnc2c1ncn2[C@@H]1O[C@H](CO)[C@@H](O)[C@H]1O [Adenosine, 9-β-D-Ribofuranosyl-9H-purin-6-amine]
effect on apoptosis or cell cycle (U937 monocytoid cells [1]; at 1000 uM): slight hint of an effect | % FITC Shift (U937 monocytoid cells [1]; drug 50 uM, no dCF): 0.7% | % PI Shift (U937 monocytoid cells [1]; drug 50 uM, no dCF): 1.7% | % FITC Shift (U937 monocytoid cells [1]; drug 75 uM, no dCF): 0.6% | % PI Shift (U937 monocytoid cells [1]; drug 75 uM, no dCF): 2.1% | % FITC Shift (U937 monocytoid cells [1]; drug 100 uM, no dCF): 0.6% | % PI Shift (U937 monocytoid cells [1]; drug 100 uM, no dCF): 2.0% | % FITC Shift (U937 monocytoid cells [1]; drug 250 uM, no dCF): 0.6% | % PI Shift (U937 monocytoid cells [1]; drug 250 uM, no dCF): 1.9% | % FITC Shift (U937 monocytoid cells [1]; drug 1000 uM, no dCF): 2.9% | % PI Shift (U937 monocytoid cells [1]; drug 1000 uM, no dCF): 7.9% | effect on apoptosis or cell cycle (U937 monocytoid cells [1]; up to 250 uM): little or no effect

Nc1ccn([C@@H]2O[C@H](CO)[C@@H](O)[C@@H]2O)c(=O)n1 [ara-C, Cytosine 1β-D-Arabinofuranoside]
Cytokine Secretion IL-6 pg/ml Mean of 3 Replicates (U-937 cells [2]; [13]): 7 pg/mL | effect on suppressing the production of IL-6 (U-937 cells [2]; drug 1 μM): little effect | Cytokine Secretion IL-6 pg/ml Mean of 3 Replicates (U-937 cells [2]; [14]): 7 pg/mL | times safer than the oncology dose [3]: 9643 | systemic exposure per day ([3]; 10% BSA (4 grams)): 2.8 mg | systemic exposure per day ([3]; 30% BSA (12 grams)): 8.4 mg | systemic exposure per day ([3]; 100% BSA (40 grams)): 28 mg

Nc1nc(Cl)nc2c1ncn2[C@@H]1O[C@H](CO)[C@@H](O)[C@@H]1F [Clofarabine]
Km (dCK): 5 µM

Nc1[nH]cnc2ncnc1-2 [Adenine, 1H-Purin-6-amine]
effect on apoptosis or cell cycle (U937 monocytoid cells [1]; at 1000 uM): slight hint of an effect | % FITC Shift (U937 monocytoid cells [1]; drug 50 uM, no dCF): 0.4% | % PI Shift (U937 monocytoid cells [1]; drug 50 uM, no dCF): 2.0% | % FITC Shift (U937 monocytoid cells [1]; drug 75 uM, no dCF): 0.6% | % PI Shift (U937 monocytoid cells [1]; drug 75 uM, no dCF): 2.4% | % FITC Shift (U937 monocytoid cells [1]; drug 100 uM, no dCF): 0.3% | % PI Shift (U937 monocytoid cells [1]; drug 100 uM, no dCF): 2.5% | % FITC Shift (U937 monocytoid cells [1]; drug 250 uM, no dCF): 0.7% | % PI Shift (U937 monocytoid cells [1]; drug 250 uM, no dCF): 3.4% | % FITC Shift (U937 monocytoid cells [1]; drug 1000 uM, no dCF): 2.9% | % PI Shift (U937 monocytoid cells [1]; drug 1000 uM, no dCF): 9.5% | effect on apoptosis or cell cycle (U937 monocytoid cells [1]; up to 250 uM): little or no effect

Nc1nc(F)nc2c1ncn2[C@H]1C[C@H](O)[C@@H](CO)O1 [FdA, 2-fluoro-2′-deoxyadenosine]
Cytokine Secretion IL-6 pg/ml Mean of 3 Replicates (U-937 cells [2]; [13]): 7 pg/mL | effect on suppressing the production of IL-6 (U-937 cells [2]; drug 1 μM): little effect | Cytokine Secretion IL-6 pg/ml Mean of 3 Replicates (U-937 cells [2]; [14]): 7 pg/mL and 8 pg/mL | Caspase-3 Induction % FITC Shift - Mean of 3 Replicates (Jurkat cells [4]; 23 hr): 75% | Caspase-3 Induction % FITC Shift - Mean of 3 Replicates (Jurkat cells [4]; 46 hr): 95% | Caspase-3 Induction % FITC Shift - Mean of 3 Replicates (U-937 cells [5]; 23 hr): 67% | Caspase-3 Induction % FITC Shift - Mean of 3 Replicates (U-937 cells [5]; 46 hr): 51% | Cytokine Secretion IL-2 pg/ml Mean of 3 Replicates (Jurkat cells [6]; 23 hr, drug 1 μM, PHA-activated cells): 41 pg/mL | Cytokine Secretion IL-2 pg/ml Mean of 3 Replicates (Jurkat cells [6]; 46 hr, drug 1 μM, PHA-activated cells): 72 pg/mL | IL-2 concentration (Jurkat cells [6]; Jurkat cells activated by PHA, 46 hours, drug 1 μM): 72 pg/mL

CC[C@@]1(O)C(=O)OCc2c1cc1n(c2=O)Cc2cc3ccccc3nc2-1 [Camptothecin]
Cytokine Secretion IL-6 pg/ml Mean of 3 Replicates (U-937 cells [2]; [15]): 0 pg/mL | Cytokine Secretion IL-6 pg/ml Mean of 3 Replicates (U-937 cells [2]; [16]): 0 pg/mL | % PI Shift (U937 monocytoid cells [7]): 29.2% | % FITC Shift (U937 monocytoid cells [8]): 79.5% | % PI Shift (U937 monocytoid cells [8]): 43.4% | % FITC Shift (U937 monocytoid cells [9]): 93.4% | % FITC Shift (Jurkat T cells): 80.2% | % FITC Shift (U937 monocytoid cells [1]; [17]): 72.8% | % PI Shift (U937 monocytoid cells [1]; [17]): 32.2% | % FITC Shift (U937 monocytoid cells [10]): 84.3% | Cytokine Secretion IL-2 pg/ml Mean of 3 Replicates (Jurkat cells [6]; [15]): 0 pg/mL | Cytokine Secretion IL-2 pg/ml Mean of 3 Replicates (Jurkat cells [6]; [16]): 0 pg/mL

Nc1ccn(C2OC(COP(=O)(O)OP(=O)(O)O)C(O)C2(F)F)c(=O)n1 (centres unmarked) [gemcitabine diphosphate]
IC50 [11]: 200 nM

Nc1nc(Cl)nc2c1ncn2[C@H]1C[C@H](O)[C@@H](COP(=O)(O)OP(=O)(O)OP(=O)(O)O)O1 [CdATP, 2-chloro-2′-deoxyadenosine-5′-triphosphate]
IC50 [11]: 60 nM

Nc1nc(F)nc2c1ncn2C1OC(COP(=O)(O)OP(=O)(O)OP(=O)(O)O)C(O)C1O (centres unmarked) [F-Ara-ATP]
IC50 [11]: ~600 nM

Nc1ccn([C@@H]2O[C@H](CO)[C@@H](O)C2(F)F)c(=O)n1 [Gemcitabine]
half-life [12]: 10 to 20 min
